Results as given in US9492436B2, “Azabenzimidazole derivatives” (Boehringer Ingelheim International GmbH, priority 2013, dated 2016).
Values after ≈ are worked out from the molar mass of the structure shown. Values belong to the compound of their own block, whether it stands above or below them.

Columns and labels:
[1] = Aqueous solubility (buffer vs acetonitrile/water, 24 h shaking, LC-UV); assay type: physicochemical; conditions: kinetic from dmso stock, 2.5% DMSO, ">" = more than 90% dissolved
Procedure: The aqueous solubility of the compounds of the invention is determined by comparing the amount dissolved in buffer to the amount in an acetonitrile/water (1/1) solution. Starting from a 10 mM DMSO stock solution aliquots are diluted with acetonitrile/water (1/1) or buffer resp. After 24 h of shaking, the solutions are filtrated and analyzed by LC-UV. The amount dissolved in buffer is compared to the amount in the acetonitrile solution.
Solubility is usually being measured from 0.001 to 0.125 mg/ml at a DMSO concentration of 2.5%. If more than 90% of the compound is dissolved in buffer, the value is marked with “>”.

[2] = target: T1, AMPK complex 1 (containing alpha1beta1gamma1) (Homo sapiens, UniProt Q13131+Q9Y478); assay: In vitro AMPK activation assay (ADP-Glo Kinase Assay); assay type: biochemical; conditions: 30 μM ATP, 1 μM peptide, 60 min, room temperature
T1 construct: GST (Glutathion S transferase) (N); made in house; host or cells: baculovirus; virus made in Sf9, expression in High Five cells
Text: Activated AMPK complex 1 (containing alpha1beta1gamma1) was obtained from baculovirus expression system. The gene encoding AMPK alpha1 was cloned into the pACG2T vector (BD Biosciences) to obtain a N-terminal Glutathion S transferase (GST)-fusion protein. The genes encoding AMPK beta 1 and gamma1 were cloned into the p2Bac dual multiple cloning site vector (Invitrogen) with beta1 under the control of the p10 promoter and gamma1 under the control of the PH promoter. The transfer vectors containing AMPK were co-transfected individually with AcPNV BacMagic-3 DNA (EMD Millipore) in Sf9 cells and the recombinant baculoviruses were harvested after 5 days, followed by 3 rounds of amplification of the virus stock in Sf9 cells. AMPK (alpha1beta1gamma1) was expressed in High Five 5 cells by co-infection of recombinant alpha1 virus and recombinant beta1/gamma1 virus for 72 h at 27° C. Cells were harvested by centrifugation and lysed by 3 freeze/thaw cycles in PBS with 10% glycerol and protease inhibitor cocktail (Roche). After centrifugation AMPK a1b1g1 in the supernatant was captured by immobilized glutathione (GE Healthcare), impurities were washed away with PBS and AMPK alpha1beta1gamma1 was eluted with PBS containing 20 mM reduced gluthathione. The protein buffer was then exchanged to PBS with 10% glycerol and protein concentration was determined by UV absorbance.
The white 384-well Optiplates (cat.no. 6007299) were purchased from PerkinElmer. The V9101 ADP-Glo Kinase Assay and ultra pure ATP (V915A) was purchased from Promega. The substrate for AMPK (NH2-HMRSAMSGLHLVKRR_CONH2) was purchased from Upstate (12-355).
Compounds were tested in either serial dilutions or single dose concentrations. The serial compound dilutions were prepared in 100% DMSO automatically. The final DMSO concentration in the assay was 0.1%.
The Compound Stock Solutions were 10 mM in 100% DMSO. The compounds were solubilised at room temperature.
In the 384-well plates 1.25 ul of test compound in assay buffer was mixed with 1.25 ul of AMPK and 1.25 μl of the peptide (final concentration of 1 μM) and 1.25 μl of ATP (final concentration of 30 μM), both dissolved in assay buffer. This step was followed by an incubation time of 60 min. Then 5 μl of ADP Glo Reagent was added. This was followed by 40 min of incubation. Then 10 μl of Kinase Detection Reagent was admixed. The plates were sealed and after an incubation period of 30 min, the luminescence signal was measured in an Envision reader. All incubation steps were accomplished at room temperature.
Each assay microtiter plate contained wells with vehicle controls instead of compound (0.1% DMSO in water) as reference for the low signal (100% CTL, low signal), and wells with serial dilutions of AMP (final 30 μM) as reference for high signals.
The luminescence signal generated was proportional to the ADP concentration produced and was correlated with AMPK activity. The analysis of the data was performed by the calculation of the percentage of ATP consumption of AMPK in the presence of the test compound compared to the consumption of ATP in the presence of AMPK without compound. (RLU(sample)/RLU(low control))*100[RLU=relative luminescence units]
An activator of the AMPK enzyme gave values above 100% CTL.
EC50 values based on dose response curves are calculated with the XIFIT software using the 4 Parameter Logistic Model or Sigmoidal Dose-Response Model.

T1 sequence (Q13131 whole entry): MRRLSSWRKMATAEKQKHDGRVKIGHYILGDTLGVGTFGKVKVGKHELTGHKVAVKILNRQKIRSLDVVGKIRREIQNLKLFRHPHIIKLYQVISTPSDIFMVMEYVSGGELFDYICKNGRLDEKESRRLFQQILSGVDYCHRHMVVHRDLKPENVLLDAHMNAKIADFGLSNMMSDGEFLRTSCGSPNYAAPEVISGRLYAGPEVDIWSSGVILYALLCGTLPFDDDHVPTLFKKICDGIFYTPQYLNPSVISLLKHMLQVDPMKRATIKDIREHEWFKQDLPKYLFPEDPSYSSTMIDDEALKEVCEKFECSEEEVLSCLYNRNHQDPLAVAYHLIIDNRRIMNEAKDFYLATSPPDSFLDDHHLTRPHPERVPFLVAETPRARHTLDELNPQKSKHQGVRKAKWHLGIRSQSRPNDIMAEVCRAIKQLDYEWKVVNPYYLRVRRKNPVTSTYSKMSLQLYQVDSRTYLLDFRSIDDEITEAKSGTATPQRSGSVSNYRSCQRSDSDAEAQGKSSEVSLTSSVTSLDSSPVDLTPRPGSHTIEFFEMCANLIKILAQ
T1 sequence (Q9Y478 whole entry): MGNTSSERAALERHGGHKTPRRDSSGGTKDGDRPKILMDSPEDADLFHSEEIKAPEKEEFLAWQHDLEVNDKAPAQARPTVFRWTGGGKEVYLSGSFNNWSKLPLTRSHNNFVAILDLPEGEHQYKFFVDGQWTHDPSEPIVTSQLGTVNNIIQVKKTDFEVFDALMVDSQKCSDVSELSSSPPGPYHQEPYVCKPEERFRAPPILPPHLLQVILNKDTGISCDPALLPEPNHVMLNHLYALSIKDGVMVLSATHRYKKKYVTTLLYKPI
T1 sequence (P54619 whole entry partner): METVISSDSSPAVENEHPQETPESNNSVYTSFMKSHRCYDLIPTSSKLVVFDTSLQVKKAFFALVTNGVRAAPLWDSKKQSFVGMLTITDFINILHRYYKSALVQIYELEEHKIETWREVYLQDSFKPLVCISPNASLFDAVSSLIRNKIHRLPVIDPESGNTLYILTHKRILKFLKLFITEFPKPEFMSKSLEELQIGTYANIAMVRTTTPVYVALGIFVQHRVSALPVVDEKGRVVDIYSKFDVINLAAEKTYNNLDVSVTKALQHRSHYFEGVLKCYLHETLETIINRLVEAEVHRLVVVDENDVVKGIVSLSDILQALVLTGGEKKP

solubility at 24 h ([1]; pH 2.2 buffer): < 80 µg/mL
solubility at 24 h ([1]; pH 4.5 buffer): > 7 µg/mL
solubility at 24 h ([1]; pH 6.8 buffer): < 1 µg/mL
Structure (SMILES): CS(C)(=O)=Nc1ccc(-c2ccc(-c3nc4[nH]c(O[C@@H]5CO[C@H]6[C@@H]5OC[C@H]6O)nc4cc3Cl)cc2)cn1 [Example 22, N-(5-(4-(6-Chloro-2-((3R,3aR,6R,6aR)-6-hydroxyhexahydrofuro[3,2-b]furan-3-yloxy)-3H-imidazo[4,5-b]pyridin-5-yl)phenyl)pyridin-2-yl)-S,S-dimethylsulfoximide]
EC50 [2]: 0.045 µM

solubility at 24 h ([1]; pH 2.2 buffer): 69 µg/mL (≈ 131 µM)
solubility at 24 h ([1]; pH 4.5 buffer): 2 µg/mL (≈ 3.8 µM)
solubility at 24 h ([1]; pH 6.8 buffer): 1 µg/mL (≈ 1.9 µM)
Structure (SMILES): CS(=N)(=O)c1ccc(-c2ccc(-c3nc4[nH]c(O[C@@H]5CO[C@H]6[C@@H]5OC[C@H]6O)nc4cc3Cl)cc2)cc1 (stereo partly drawn) [Example 23, (3R,3aR,6R,6aR)-6-(6-Chloro-5-(4′-(S-methylsulfonimidoyl)biphenyl-4-yl)-3H-imidazo[4,5-b]pyridin-2-yloxy)hexahydrofuro[3,2-b]furan-3-ol]
EC50 [2]: 0.01 µM

solubility at 24 h ([1]; pH 2.2 buffer): 77 µg/mL (≈ 146 µM)
solubility at 24 h ([1]; pH 4.5 buffer): < 1 µg/mL
solubility at 24 h ([1]; pH 6.8 buffer): < 1 µg/mL
Structure (SMILES): CS(=N)(=O)c1ccc(-c2ccc(-c3nc4[nH]c(O[C@@H]5CO[C@H]6[C@@H]5OC[C@H]6O)nc4cc3Cl)cc2)nc1 (stereo partly shown) [Example 27]
EC50 [2]: 0.004 µM

solubility at 24 h ([1]; pH 2.2 buffer): 92 µg/mL (≈ 170 µM)
solubility at 24 h ([1]; pH 4.5 buffer): < 1 µg/mL
solubility at 24 h ([1]; pH 6.8 buffer): < 1 µg/mL
Structure (SMILES): CN=S(C)(=O)c1ccc(-c2ccc(-c3nc4[nH]c(O[C@@H]5CO[C@H]6[C@@H]5OC[C@H]6O)nc4cc3Cl)cc2)nc1 (stereo partly drawn) [Example 28, (3R,3aR,6R,6aR)-6-(6-Chloro-5-(4-(5-(N,S-dimethylsulfonimidoyl)pyridin-2-yl)phenyl)-3H-imidazo[4,5-b]pyridin-2-yloxy)hexahydrofuro[3,2-b]furan-3-ol]
EC50 [2]: 0.002 µM

solubility at 24 h ([1]; pH 2.2 buffer): 15 µg/mL (≈ 27.2 µM)
solubility at 24 h ([1]; pH 4.5 buffer): < 1 µg/mL
solubility at 24 h ([1]; pH 6.8 buffer): < 1 µg/mL
Structure (SMILES): CS(=O)(=NC#N)c1ccc(-c2ccc(-c3nc4[nH]c(O[C@@H]5CO[C@H]6[C@@H]5OC[C@H]6O)nc4cc3Cl)cc2)cc1 (stereo partly drawn) [Example 7, S-(4′-(6-Chloro-2-((3R,3aR,6R,6aR)-6-hydroxyhexahydrofuro[3,2-b]furan-3-yloxy)-3H-imidazo[4,5-b]pyridin-5-yl)biphenyl-4-yl)-S-methyl-N-cyano-sulfoximide]
EC50 [2]: 0.001 µM

solubility at 24 h ([1]; pH 2.2 buffer): 42 µg/mL (≈ 77.6 µM)
solubility at 24 h ([1]; pH 4.5 buffer): < 1 µg/mL
solubility at 24 h ([1]; pH 6.8 buffer): < 1 µg/mL
Structure (SMILES): CS(=N)(=O)Cc1ccc(-c2ccc(-c3nc4[nH]c(O[C@@H]5CO[C@H]6[C@@H]5OC[C@H]6O)nc4cc3Cl)cc2)cc1 (stereo partly drawn) [Example 52, (3R,3aR,6R,6aR)-6-(6-Chloro-5-(4′-(S-methylsulfonimidoylmethyl)biphenyl-4-yl)-3H-imidazo[4,5-b]pyridin-2-yloxy)hexahydrofuro[3,2-b]furan-3-ol]
EC50 [2]: 0.003 µM

More lines, now with the values behind:

Structure (SMILES): CS(C)(=O)=NCc1ccc(-c2ccc(-c3nc4[nH]c(O[C@@H]5CO[C@H]6[C@@H]5OC[C@H]6O)nc4cc3Cl)cc2)cn1 [Example 51, N-(5-{4-[6-Chloro-2-((3R,3aR,6R,6aR)-6-hydroxyhexahydrofuro[3,2-b]furan-3-yloxy)-3H-imidazo[4,5-b]pyridin-5-yl]-phenyl}-pyridin-2-ylmethyl)-S,S-dimethylsulfoximide]
solubility at 24 h ([1]; pH 2.2 buffer): > 146 µg/mL
solubility at 24 h ([1]; pH 4.5 buffer): 28 µg/mL (≈ 50.4 µM)
solubility at 24 h ([1]; pH 6.8 buffer): 2 µg/mL (≈ 3.6 µM)
EC50 [2]: 0.092 µM

Structure (SMILES): CS(C)(=O)=Nc1ccc(-c2ccc(-c3nc4[nH]c(O[C@@H]5CO[C@H]6[C@@H]5OC[C@H]6O)nc4cc3Cl)cc2)nn1 [Example 50, N-(6-{4-[6-Chloro-2-((3R,3aR,6R,6aR)-6-hydroxyhexahydrofuro[3,2-b]furan-3-yloxy)-3H-imidazo[4,5-b]pyridin-5-yl]-phenyl}-pyridazin-3-yl)-S,S-dimethylsulfoximide]
solubility at 24 h ([1]; pH 2.2 buffer): > 128 µg/mL
solubility at 24 h ([1]; pH 4.5 buffer): > 117 µg/mL
solubility at 24 h ([1]; pH 6.8 buffer): 88 µg/mL (≈ 162 µM)
EC50 [2]: 0.304 µM

Structure (SMILES): CS(C)(=O)=Nc1cc(-c2ccc(-c3nc4[nH]c(O[C@@H]5CO[C@H]6[C@@H]5OC[C@H]6O)nc4cc3Cl)cc2)ccn1 [Example 36, N-(4-{4-[6-Chloro-2-((3R,3aR,6R,6aR)-6-hydroxyhexahydrofuro[3,2-b]furan-3-yloxy)-3H-imidazo[4,5-b]pyridin-5-yl]-phenyl}-pyridin-2-yl)-S,S-dimethylsulfoximide]
solubility at 24 h ([1]; pH 2.2 buffer): 99 µg/mL (≈ 183 µM)
solubility at 24 h ([1]; pH 4.5 buffer): < 1 µg/mL
solubility at 24 h ([1]; pH 6.8 buffer): < 1 µg/mL
EC50 [2]: 0.015 µM

Structure (SMILES): CS(C)(=O)=NCC1CCN(c2ccc(-c3nc4[nH]c(O[C@@H]5CO[C@H]6[C@@H]5OC[C@H]6O)nc4cc3Cl)cc2)CC1 [Example 31, N-(1-(4-(6-Chloro-2-((3R,3aR,6R,6aR)-6-hydroxyhexahydrofuro[3,2-b]furan-3-yloxy)-3H-imidazo[4,5-b]pyridin-5-yl)phenyl)piperidin-4-ylmethyl)-S,S-dimethylsulfoximide]
solubility at 24 h ([1]; pH 2.2 buffer): > 122 µg/mL
solubility at 24 h ([1]; pH 4.5 buffer): 105 µg/mL (≈ 187 µM)
solubility at 24 h ([1]; pH 6.8 buffer): 89 µg/mL (≈ 158 µM)
EC50 [2]: 0.017 µM

Structure (SMILES): CS(C)(=O)=Nc1cnc(-c2ccc(-c3nc4[nH]c(O[C@@H]5CO[C@H]6[C@@H]5OC[C@H]6O)nc4cc3Cl)cc2)nc1 [Example 34, N-(2-{4-[6-Chloro-2-((3R,3aR,6R,6aR)-6-hydroxyhexahydrofuro[3,2-b]furan-3-yloxy)-3H-imidazo[4,5-b]pyridin-5-yl]-phenyl}-pyrimidin-5-yl)-S,S-dimethylsulfoximide]
solubility at 24 h ([1]; pH 2.2 buffer): 4 µg/mL (≈ 7.37 µM)
solubility at 24 h ([1]; pH 4.5 buffer): 5 µg/mL (≈ 9.21 µM)
solubility at 24 h ([1]; pH 6.8 buffer): 13 µg/mL (≈ 23.9 µM)
EC50 [2]: 0.003 µM

Structure (SMILES): CS(C)(=O)=Nc1ccc(-c2ncc(-c3nc4[nH]c(O[C@@H]5CO[C@H]6[C@@H]5OC[C@H]6O)nc4cc3Cl)cn2)cc1 [Example 42, N-(4-{5-[6-Chloro-2-((3R,3aR,6R,6aR)-6-hydroxyhexahydrofuro[3,2-b]furan-3-yloxy)-3H-imidazo[4,5-b]pyridin-5-yl]-pyrimidin-2-yl}-phenyl)-S,S-dimethylsulfoximide]
EC50 [2]: 0.41 µM

Structure (SMILES): N=S1(=O)CCN(c2ccc(-c3nc4[nH]c(O[C@@H]5CO[C@H]6[C@@H]5OC[C@H]6O)nc4cc3Cl)cc2)CC1 [Example 4]
EC50 [2]: 0.022 µM
